Where two headings read alike, the source gives them in different places.
Target: T1, human recombinant COX2 (hCOX2) (UniProt P35354)
T1 sequence (P35354 1-604): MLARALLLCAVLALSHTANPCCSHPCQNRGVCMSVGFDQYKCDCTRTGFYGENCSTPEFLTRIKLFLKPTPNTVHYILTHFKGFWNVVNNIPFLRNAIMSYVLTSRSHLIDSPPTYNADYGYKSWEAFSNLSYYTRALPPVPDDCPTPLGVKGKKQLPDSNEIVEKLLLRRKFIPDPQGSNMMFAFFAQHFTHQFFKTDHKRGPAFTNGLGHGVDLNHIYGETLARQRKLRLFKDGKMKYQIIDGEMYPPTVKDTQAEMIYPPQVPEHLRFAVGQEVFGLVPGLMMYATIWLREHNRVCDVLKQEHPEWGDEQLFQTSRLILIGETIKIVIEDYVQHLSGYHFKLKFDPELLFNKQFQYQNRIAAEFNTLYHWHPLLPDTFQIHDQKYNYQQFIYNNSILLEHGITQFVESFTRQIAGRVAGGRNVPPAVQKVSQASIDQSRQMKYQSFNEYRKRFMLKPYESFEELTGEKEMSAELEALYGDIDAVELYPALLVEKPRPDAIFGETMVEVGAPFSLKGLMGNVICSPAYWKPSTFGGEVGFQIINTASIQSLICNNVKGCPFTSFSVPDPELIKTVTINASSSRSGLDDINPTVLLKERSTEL
Experiment: LCMS-based COX2 enzymatic inhibition assay (PGE2 quantification)
Format: biochemical
Parameters: COX2 2 minutes pge2/pge2d4 area ratio Avg; other: 2 minutes; readout pge2/pge2d4 area ratio; average; COX2 2 minutes pge2/pge2d4 area ratio Avg; LLE; average LLE; COX2 2 minutes pge2 area (counts) Avg; readout pge2 area (counts); other: 2 min; "ovine COX2 (oCOX2), human recombinant COX2 (hCOX2)"
Conditions: for IC50: average; for COX2 2 minutes pge2/pge2d4 area ratio Avg. LLE / COX2 2 minutes pge2 area (counts) Avg. LLE / COX2 10 minutes pge2 area (counts) Avg. LLE: average LLE
Method in brief: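 PGE2 formed from arachidonic acid (final 5 μM, 2 min) was measured by LC-MS-MS against DMSO controls. Enzyme (oCOX-1 0.1 μg or hCOX2 0.2 μg) with hematin/epinephrine cofactors at pH 8.0 was given 10 min at 37 °C with compound first. Twelve-point curves run three times gave IC50.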

[1] = 2 minutes, readout pge2/pge2d4 area ratio, read-out: COX2 2 minutes pge2/pge2d4 area ratio Avg. IC50
[2] = 2 minutes, readout pge2 area (counts), read-out: COX2 2 minutes pge2 area (counts) Avg. IC50
[3] = 2 minutes, readout pge2/pge2d4 area ratio
[4] = 2 minutes, readout pge2 area (counts)
[5] = read-out: COX2 2 minutes pge2/pge2d4 area ratio Avg. IC50 (microM), 2 minutes, readout pge2/pge2d4 area ratio
[6] = 10 minutes, readout pge2 area (counts), read-out: COX2 10 minutes pge2 area (counts) Avg. IC50
[7] = 10 minutes, readout pge2 area (counts)

CS(=O)(=O)c1ccc(-c2nc3cnn(Cc4cccs4)c3[nH]2)cc1 [Compound 256]
IC50 [1]: 4.04 µM | IC50 [2]: 4.56 µM

CS(=O)(=O)c1ccc(-n2ccc3ccc([C@@H](O)c4cccs4)nc32)cc1 (single isomer, unassigned) [Compound 209]
IC50 [1]: 1.34 µM | IC50 [2]: 1.44 µM

COc1ncc(NCc2cccs2)nc1-c1ccc(S(C)(=O)=O)cn1 [Compound 128]
COX2 2 minutes pge2/pge2d4 area ratio Avg. LLE [3]: 5.784 | IC50 [1]: 0.144 µM | COX2 2 minutes pge2 area (counts) Avg. LLE [4]: 5.809 | IC50 [2]: 0.139 µM

CS(=O)(=O)c1ccc(-c2cccc(C[C@H](O)c3cccs3)n2)cc1 [Compound 300]
IC50 [5]: 5.2 µM

CS(=O)(=O)c1ccc(-c2cncc(SCc3ccno3)n2)cc1 [Compound 193]
COX2 2 minutes pge2/pge2d4 area ratio Avg. LLE [3]: 4.9351 | IC50 [1]: 0.772 µM | COX2 2 minutes pge2 area (counts) Avg. LLE [4]: 4.813 | IC50 [2]: 1.09 µM

Cc1cocc1CNc1cccc(-c2ccc(S(C)(=O)=O)cc2)n1 [Compound 40]
COX2 2 minutes pge2/pge2d4 area ratio Avg. LLE [3]: 4.502 | IC50 [1]: 0.0188 µM | COX2 2 minutes pge2 area (counts) Avg. LLE [4]: 4.487 | IC50 [2]: 0.0207 µM

CS(=O)(=O)c1ccc(-c2cnc(N)c(OCc3cccs3)n2)cc1 [Compound 86]
COX2 2 minutes pge2/pge2d4 area ratio Avg. LLE [3]: 5.134 | IC50 [1]: 0.061 µM | COX2 2 minutes pge2 area (counts) Avg. LLE [4]: 5.087 | IC50 [2]: 0.0682 µM

CS(=O)(=O)c1ccc(-c2cncc(OCc3ccc(Cl)s3)n2)cc1 [Compound 4]
COX2 2 minutes pge2/pge2d4 area ratio Avg. LLE [3]: 4.855 | IC50 [1]: 0.006 µM | COX2 2 minutes pge2 area (counts) Avg. LLE [4]: 4.615 | IC50 [2]: 0.0141 µM

CS(=O)(=O)c1ccc(-c2cncc(N3Cc4ccncc4C3)n2)cc1 [Compound 304]
IC50 [5]: 5.2 µM

COc1ncc(-c2ccc(S(C)(=O)=O)cc2)nc1NCc1ccncc1 [Compound 230]
COX2 2 minutes pge2/pge2d4 area ratio Avg. LLE [3]: 4.383 | IC50 [1]: 2.38 µM | COX2 2 minutes pge2 area (counts) Avg. LLE [4]: 4.367 | IC50 [2]: 2.48 µM

CS(=O)(=O)c1ccc(-c2cncc(NC(=O)c3cccs3)n2)cc1 [Compound 192]
COX2 2 minutes pge2/pge2d4 area ratio Avg. LLE [3]: 4.414 | IC50 [1]: 0.751 µM | COX2 2 minutes pge2 area (counts) Avg. LLE [4]: 4.524 | IC50 [2]: 0.602 µM

CS(=O)(=O)c1ccc(-c2cc(NCc3ccoc3)ncn2)cc1 [Compound 239]
IC50 [1]: 2.74 µM | IC50 [2]: 3.1 µM

Cn1ccc(CNc2cncc(-c3ccc(S(C)(=O)=O)cc3)n2)n1 [Compound 245]
COX2 2 minutes pge2/pge2d4 area ratio Avg. LLE [3]: 4.632 | IC50 [1]: 3.16 µM | COX2 2 minutes pge2 area (counts) Avg. LLE [4]: 4.621 | IC50 [2]: 3.33 µM

CS(=O)(=O)c1ccc(-c2cncc(NC[C@@H]3CCCO3)n2)cc1 [Compound 224]
COX2 2 minutes pge2/pge2d4 area ratio Avg. LLE [3]: 4.828 | IC50 [1]: 1.94 µM | COX2 2 minutes pge2 area (counts) Avg. LLE [4]: 4.821 | IC50 [2]: 1.84 µM

CS(=O)(=O)c1ccc(-c2coc3ccc(NCc4ccoc4)nc23)cc1 [Compound 55]
IC50 [1]: 0.0305 µM | IC50 [2]: 0.0265 µM

Cc1ncc(OCc2cccs2)nc1-c1ccc(S(C)(=O)=O)cc1 [Compound 119]
COX2 2 minutes pge2/pge2d4 area ratio Avg. LLE [3]: 4.695 | IC50 [1]: 0.116 µM | COX2 2 minutes pge2 area (counts) Avg. LLE [4]: 4.215 | IC50 [2]: 0.233 µM

CS(=O)(=O)c1ccc(-c2cncc(N3Cc4cccnc4C3)n2)cc1 [Compound 328]
COX2 2 minutes pge2 area (counts) Avg. LLE [4]: 4.414 | IC50 [5]: 5.2 µM

CS(=O)(=O)c1ccc(-c2cnc(C#N)c(NCc3cccs3)n2)cc1 [Compound 169]
IC50 [1]: 0.442 µM | IC50 [2]: 0.294 µM | IC50 [6]: 0.0591 µM

CS(=O)(=O)c1ccc(-c2cnc(N)c(NCc3cccs3)n2)cc1 [Compound 165]
COX2 2 minutes pge2/pge2d4 area ratio Avg. LLE [3]: 4.592 | IC50 [1]: 0.425 µM | COX2 2 minutes pge2 area (counts) Avg. LLE [4]: 4.629 | IC50 [2]: 0.391 µM

CS(=O)(=O)c1ccc(-c2coc3ccc(NCc4ccco4)nc23)cc1 [Compound 68]
IC50 [1]: 0.0402 µM | IC50 [2]: 0.041 µM

CS(=O)(=O)c1ccc(-c2ccc3ccn(-c4ccccc4)c3n2)cc1 [Compound 146]
COX2 2 minutes pge2/pge2d4 area ratio Avg. LLE [3]: 2.102 | IC50 [1]: 0.248 µM | COX2 2 minutes pge2 area (counts) Avg. LLE [4]: 2.132 | IC50 [2]: 0.201 µM

CS(=O)(=O)c1ccc(-c2cncc(NCc3cnco3)n2)cc1 [Compound 215]
COX2 2 minutes pge2/pge2d4 area ratio Avg. LLE [3]: 4.859 | IC50 [1]: 1.53 µM | COX2 2 minutes pge2 area (counts) Avg. LLE [4]: 4.845 | IC50 [2]: 1.58 µM

CS(=O)(=O)c1ccc(-c2cccc(NCc3ccoc3)n2)cn1 [Compound 113]
COX2 2 minutes pge2/pge2d4 area ratio Avg. LLE [3]: 4.956 | IC50 [1]: 0.103 µM | COX2 2 minutes pge2 area (counts) Avg. LLE [4]: 4.897 | IC50 [2]: 0.122 µM

COc1ncc(NCc2cccs2)cc1-c1ccc(S(C)(=O)=O)cc1 [Compound 196]
COX2 2 minutes pge2/pge2d4 area ratio Avg. LLE [3]: 2.588 | IC50 [1]: 0.887 µM | COX2 2 minutes pge2 area (counts) Avg. LLE [4]: 2.528 | IC50 [2]: 1.02 µM

CS(=O)(=O)c1ccc(-c2cncc(NC[C@H]3CCCO3)n2)cc1 [Compound 263]
COX2 2 minutes pge2/pge2d4 area ratio Avg. LLE [3]: 4.417 | IC50 [1]: 4.61 µM | COX2 2 minutes pge2 area (counts) Avg. LLE [4]: 4.469 | IC50 [2]: 4.09 µM

CS(=O)(=O)c1ccc(-c2cncc(Oc3ccccc3)n2)cc1 [Compound 132]
COX2 2 minutes pge2/pge2d4 area ratio Avg. LLE [3]: 4.451 | IC50 [1]: 0.158 µM | COX2 2 minutes pge2 area (counts) Avg. LLE [4]: 3.942 | IC50 [2]: 0.975 µM

CS(=O)(=O)c1ccc(-c2nc(NCc3cccs3)cnc2C#N)cc1 [Compound 159]
COX2 2 minutes pge2/pge2d4 area ratio Avg. LLE [3]: 4.781 | IC50 [1]: 0.361 µM | COX2 2 minutes pge2 area (counts) Avg. LLE [4]: 4.751 | IC50 [2]: 0.381 µM

CS(=O)(=O)c1ccc(-c2cncc(OCC3CC3)n2)cc1 [Compound 273]
COX2 2 minutes pge2/pge2d4 area ratio Avg. LLE [3]: 3.734 | COX2 2 minutes pge2 area (counts) Avg. LLE [4]: 3.734 | IC50 [5]: 5.2 µM

CS(=O)(=O)c1ccc(-c2ccc3ncn(Cc4cccs4)c3n2)cc1 [Compound 155]
COX2 2 minutes pge2/pge2d4 area ratio Avg. LLE [3]: 2.321 | IC50 [1]: 0.32 µM | COX2 2 minutes pge2 area (counts) Avg. LLE [4]: 2.324 | IC50 [2]: 0.317 µM

CN1CCN(c2cncc(-c3ccc(S(C)(=O)=O)cc3)n2)CC1 [Compound 287]
COX2 2 minutes pge2/pge2d4 area ratio Avg. LLE [3]: 5.044 | COX2 2 minutes pge2 area (counts) Avg. LLE [4]: 5.044 | COX2 10 minutes pge2 area (counts) Avg. LLE [7]: 5.574 | IC50 [6]: 1.54 µM | IC50 [5]: 5.2 µM

CS(=O)(=O)c1ccc(-c2cncc(N3CCCCC3)n2)cc1 [Compound 262]
COX2 2 minutes pge2/pge2d4 area ratio Avg. LLE [3]: 3.643 | IC50 [1]: 4.57 µM | COX2 2 minutes pge2 area (counts) Avg. LLE [4]: 3.693 | IC50 [2]: 4.04 µM | COX2 10 minutes pge2 area (counts) Avg. LLE [7]: 3.59 | IC50 [6]: 5.13 µM

CS(=O)(=O)c1ccc(-c2cncc(OCc3nccs3)n2)cc1 [Compound 147]
COX2 2 minutes pge2/pge2d4 area ratio Avg. LLE [3]: 4.543 | IC50 [1]: 0.25 µM | COX2 2 minutes pge2 area (counts) Avg. LLE [4]: 4.9085 | IC50 [2]: 0.113 µM

CS(=O)(=O)c1ccc(-c2cccc([S@@+]([O-])Cc3cccs3)n2)cc1 [Compound 266]
COX2 2 minutes pge2/pge2d4 area ratio Avg. LLE [3]: 2.95 | IC50 [1]: 4.84 µM | COX2 2 minutes pge2 area (counts) Avg. LLE [4]: 2.934

COc1ncc(OCc2ccco2)nc1-c1ccc(S(C)(=O)=O)cc1 [Compound 81]
COX2 2 minutes pge2/pge2d4 area ratio Avg. LLE [3]: 5.231 | IC50 [1]: 0.0559 µM | COX2 2 minutes pge2 area (counts) Avg. LLE [4]: 5.428 | IC50 [2]: 0.041 µM

NS(=O)(=O)c1ccc(-c2cncc(NCc3cccs3)n2)cc1 [Compound 106]
COX2 2 minutes pge2/pge2d4 area ratio Avg. LLE [3]: 5.5926 | IC50 [1]: 0.0916 µM | COX2 2 minutes pge2 area (counts) Avg. LLE [4]: 5.699 | IC50 [2]: 0.0665 µM

CS(=O)(=O)c1ccc(-n2ccc3ccc(/C(=N\O)c4cccs4)nc32)cc1 [Compound 187]
IC50 [1]: 0.629 µM | IC50 [2]: 0.635 µM

CS(=O)(=O)c1ccc(-c2cccc([S@+]([O-])Cc3cccs3)n2)cc1 [Compound 251]
COX2 2 minutes pge2/pge2d4 area ratio Avg. LLE [3]: 3.082 | IC50 [1]: 3.7 µM | COX2 2 minutes pge2 area (counts) Avg. LLE [4]: 2.9649 | IC50 [2]: 4.84 µM

CN(C)c1cncc(-c2ccc(S(C)(=O)=O)cc2)n1 [Compound 278]
COX2 2 minutes pge2/pge2d4 area ratio Avg. LLE [3]: 4.524 | COX2 2 minutes pge2 area (counts) Avg. LLE [4]: 4.672 | IC50 [2]: 3.7 µM | COX2 10 minutes pge2 area (counts) Avg. LLE [7]: 4.674 | IC50 [6]: 3.68 µM | IC50 [5]: 5.2 µM

CS(=O)(=O)c1ccc(-c2cncc(OC[C@@H]3CCCS3)n2)cc1 (single isomer, unassigned) [Compound 170]
COX2 2 minutes pge2/pge2d4 area ratio Avg. LLE [3]: 4.61 | IC50 [1]: 0.442 µM | COX2 2 minutes pge2 area (counts) Avg. LLE [4]: 4.149 | IC50 [2]: 0.931 µM
